Test results from US20090203689A1, “ABCA-1 ELEVATING COMPOUNDS AND METHODS” (priority 2008, published 2009).

Test system: ABCA-1
Test: Measurement of ABCA-1 protein expression (western blot) in liver of treated ZDF rats
Type: in vivo, ZDF (Zucker diabetic fatty) rats
Conditions: treated at 0, 2 and 4 hrs, western blot quantitated by densitometry, normalized to time-point vehicle controls, time-course (FIG. 2)
Description: FIG. 2 illustrates the time-course of the effect of treatment on hepatic ABCA1 protein expression in ZDF rats. Rats were treated with a test compound of Formula I at 0, 2 and 4 hrs. […] ABCA1 protein expression was measured by western blot and quantitated by densitometry, Time-point vehicle controls were used to normalize ABCA1 expression at each time-point.
Cellular ABCA-1 protein expression in cells or tissues were quantitated from homogenates prepared from tissue or cells homogenized in a lysis buffer containing protease inhibitors. Lysate proteins were separated by SDS-PAGE and western blotted for ABCA11 and a housekeeping protein. ABCA-1 was detected with a mouse monoclonal antibody that cross-reacts with human, rat and mouse. β-Actin (or other commonly used normalization proteins) were detected with the appropriate commercial antibody. Using the described assay, the effect of treatment on hepatic ABCA1 protein expression in ZDF rats was determined. Rats were treated with a test compound of Formula I at 0, 2 and 4 hrs. […] Time-point vehicle controls were used to normalize ABCA1 expression at each time-point. The test compound of Formula I used in the experiments of FIG. 2 was 2-{6-[((1R,2R)-2-hydroxycyclopentyl)amino]purin-9-yl}(4S,5S,2R,3R)-5-[(2-fluorophenylthio)methyl]oxolane-3,4-diol.

O[C@@H]1[C@H](O)[C@@H](CSc2ccccc2F)O[C@H]1n1cnc2c(N[C@@H]3CCC[C@H]3O)ncnc21 [2-{6-[((1R,2R)-2-hydroxycyclopentyl)amino]purin-9-yl}(4S,5S,2R,3R)-5-[(2-fluorophenylthio)methyl]oxolane-3,4-diol]
hepatic ABCA1 protein expression: increases ABCA-1 protein expression with time
